{
  "source": "paper PMC11930985",
  "about": "(Nature Communications, 2025)",
  "key": {"Flt1": {"system": "Flt1", "parameters": "method as in Investigator's Brochure (IB) version 5.0", "details": "ref Investigator's Brochure (IB) version 5.0; cited from earlier work"}, "bacterial mutation": {"system": "bacterial mutation", "details": "ref Investigator's Brochure (IB) version 5.0; cited from earlier work"}, "AML/MDS patients": {"system": "AML/MDS patients", "assay": "Response assessment (ELN AML / modified IWG MDS criteria): ORR, DCR", "type": "in vivo, human", "procedure": "All patients underwent baseline disease assessments at screening (peripheral blood and bone marrow (BM)). Efficacy was assessed according to the blast percentage in a peripheral blood and BM aspirate sample, measurement of absolute neutrophil count, measurement of platelet count, and red cell transfusion requirement according to the European LeukemiaNet[37] response criteria for AML and the modified IWG response criteria for MDS[38]. Response criteria used are summarized in Supplementary Table 4.\nResponse assessments (peripheral blood and BM) were performed at Cycle 2 Day 1 (pre-dose), Cycle 4 Day 1 (pre-dose) and repeated every 3 cycles thereafter or when clinically indicated. Patients who completed 12 months of study treatment and had not experienced progressive disease (PD) underwent response assessment every 5 cycles until PD was confirmed. Efficacy endpoints were: Objective response rate (ORR), defined as the number of patients with CR, CRi, MLFS, MR or PR divided by the total number of patients in the cohort/group; Disease control rate (DCR), defined as the number of patients with CR, CRi, MLFS, MR, PR or unchanged disease for at least three cycles (considered to have stable disease (SD)) divided by the total number of patients in the cohort/group; Overall survival (OS), defined as (date of death or censoring) – (date of the first study treatment) +1. Censoring date was the last date the patient was known to be alive; Event free survival (EFS), defined as (earliest of date of death, date of progression or date of censoring) – (date of the first study treatment) +1, with event defined as death or progression. Patients who started a new anti-cancer treatment before documented progression were censored at the date of the last assessment prior to start of non-protocol treatment. […] Patients who were alive without documented progression on the last day of contact were censored at the date of the last assessment."}},
  "data": [
    {"smiles": "Nc1nc(Nc2ccc3c(c2)CC[C@@H](N2CCCC2)CC3)nn1-c1cc2c(nn1)-c1ccccc1CCC2", "note": "[Bemcentinib]", "values": [
      {"measurement": "IC50", "setting": "Flt1", "result": "> 1000", "unit": "nM"},
      {"measurement": "Ames bacterial mutation assay result", "setting": "bacterial mutation", "result": "negative"},
      {"measurement": "CR", "setting": "AML/MDS patients; DE 200/100 mg, N=4", "result": "0 n (%)"},
      {"measurement": "CRi", "setting": "AML/MDS patients; DE 200/100 mg, N=4", "result": "0 n (%)"},
      {"measurement": "MLFS", "setting": "AML/MDS patients; DE 200/100 mg, N=4", "result": "0 n (%)"},
      {"measurement": "MR (marrow response)", "setting": "AML/MDS patients; DE 200/100 mg, N=4", "result": "0 n (%)"},
      {"measurement": "NE (not evaluable)", "setting": "AML/MDS patients; DE 200/100 mg, N=4", "result": "1 (25%) n (%)"},
      {"measurement": "Non-Responder", "setting": "AML/MDS patients; DE 200/100 mg, N=4", "result": "4 (100%) n (%)"},
      {"measurement": "PD (progressive disease)", "setting": "AML/MDS patients; DE 200/100 mg, N=4", "result": "1 (25%) n (%)"},
      {"measurement": "PR", "setting": "AML/MDS patients; DE 200/100 mg, N=4", "result": "0 n (%)"},
      {"measurement": "Responder", "setting": "AML/MDS patients; DE 200/100 mg, N=4", "result": "0 (0%) n (%)"},
      {"measurement": "UC (unchanged)", "setting": "AML/MDS patients; DE 200/100 mg, N=4", "result": "1 (25%) n (%)"},
      {"measurement": "CR", "setting": "AML/MDS patients; DE 400/100 mg, N=6", "result": "0 n (%)"},
      {"measurement": "CRi", "setting": "AML/MDS patients; DE 400/100 mg, N=6", "result": "0 n (%)"},
      {"measurement": "MLFS", "setting": "AML/MDS patients; DE 400/100 mg, N=6", "result": "0 n (%)"},
      {"measurement": "MR (marrow response)", "setting": "AML/MDS patients; DE 400/100 mg, N=6", "result": "1 (17%) n (%)"},
      {"measurement": "NE (not evaluable)", "setting": "AML/MDS patients; DE 400/100 mg, N=6", "result": "0 n (%)"},
      {"measurement": "Non-Responder", "setting": "AML/MDS patients; DE 400/100 mg, N=6", "result": "5 (83%) n (%)"},
      {"measurement": "PD (progressive disease)", "setting": "AML/MDS patients; DE 400/100 mg, N=6", "result": "0 n (%)"},
      {"measurement": "PR", "setting": "AML/MDS patients; DE 400/100 mg, N=6", "result": "0 n (%)"},
      {"measurement": "Responder", "setting": "AML/MDS patients; DE 400/100 mg, N=6", "result": "1 (17%) n (%)"},
      {"measurement": "UC (unchanged)", "setting": "AML/MDS patients; DE 400/100 mg, N=6", "result": "3 (50%) n (%)"},
      {"measurement": "CR", "setting": "AML/MDS patients; DE 400/200 mg, N=7", "result": "1 (14%) n (%)"},
      {"measurement": "CRi", "setting": "AML/MDS patients; DE 400/200 mg, N=7", "result": "1 (14%) n (%)"},
      {"measurement": "MLFS", "setting": "AML/MDS patients; DE 400/200 mg, N=7", "result": "0 n (%)"},
      {"measurement": "MR (marrow response)", "setting": "AML/MDS patients; DE 400/200 mg, N=7", "result": "0 n (%)"},
      {"measurement": "NE (not evaluable)", "setting": "AML/MDS patients; DE 400/200 mg, N=7", "result": "1 (14%) n (%)"},
      {"measurement": "Non-Responder", "setting": "AML/MDS patients; DE 400/200 mg, N=7", "result": "5 (71%) n (%)"},
      {"measurement": "PD (progressive disease)", "setting": "AML/MDS patients; DE 400/200 mg, N=7", "result": "1 (14%) n (%)"},
      {"measurement": "PR", "setting": "AML/MDS patients; DE 400/200 mg, N=7", "result": "0 n (%)"},
      {"measurement": "Responder", "setting": "AML/MDS patients; DE 400/200 mg, N=7", "result": "2 (29%) n (%)"},
      {"measurement": "UC (unchanged)", "setting": "AML/MDS patients; DE 400/200 mg, N=7", "result": "3 (43%) n (%)"},
      {"measurement": "CR", "setting": "AML/MDS patients; DE 600/200 mg, N=14", "result": "0 n (%)"},
      {"measurement": "CRi", "setting": "AML/MDS patients; DE 600/200 mg, N=14", "result": "1 (7%) n (%)"},
      {"measurement": "MLFS", "setting": "AML/MDS patients; DE 600/200 mg, N=14", "result": "1 (7%) n (%)"},
      {"measurement": "MR (marrow response)", "setting": "AML/MDS patients; DE 600/200 mg, N=14", "result": "0 n (%)"},
      {"measurement": "NE (not evaluable)", "setting": "AML/MDS patients; DE 600/200 mg, N=14", "result": "4 (29%) n (%)"},
      {"measurement": "Non-Responder", "setting": "AML/MDS patients; DE 600/200 mg, N=14", "result": "12 (86%) n (%)"},
      {"measurement": "PD (progressive disease)", "setting": "AML/MDS patients; DE 600/200 mg, N=14", "result": "3 (21%) n (%)"},
      {"measurement": "PR", "setting": "AML/MDS patients; DE 600/200 mg, N=14", "result": "0 n (%)"},
      {"measurement": "Responder", "setting": "AML/MDS patients; DE 600/200 mg, N=14", "result": "2 (14%) n (%)"},
      {"measurement": "UC (unchanged)", "setting": "AML/MDS patients; DE 600/200 mg, N=14", "result": "4 (29%) n (%)"},
      {"measurement": "CR", "setting": "AML/MDS patients; DE 900/300 mg, N=5", "result": "0 n (%)"},
      {"measurement": "CRi", "setting": "AML/MDS patients; DE 900/300 mg, N=5", "result": "0 n (%)"},
      {"measurement": "MLFS", "setting": "AML/MDS patients; DE 900/300 mg, N=5", "result": "0 n (%)"},
      {"measurement": "MR (marrow response)", "setting": "AML/MDS patients; DE 900/300 mg, N=5", "result": "0 n (%)"},
      {"measurement": "NE (not evaluable)", "setting": "AML/MDS patients; DE 900/300 mg, N=5", "result": "2 (40%) n (%)"},
      {"measurement": "Non-Responder", "setting": "AML/MDS patients; DE 900/300 mg, N=5", "result": "5 (100%) n (%)"},
      {"measurement": "PD (progressive disease)", "setting": "AML/MDS patients; DE 900/300 mg, N=5", "result": "0 n (%)"},
      {"measurement": "PR", "setting": "AML/MDS patients; DE 900/300 mg, N=5", "result": "0 n (%)"},
      {"measurement": "Responder", "setting": "AML/MDS patients; DE 900/300 mg, N=5", "result": "0 (0%) n (%)"},
      {"measurement": "UC (unchanged)", "setting": "AML/MDS patients; DE 900/300 mg, N=5", "result": "2 (40%) n (%)"},
      {"measurement": "Median time to objective response", "setting": "AML/MDS patients; DE cohort", "result": 22, "unit": "days"},
      {"measurement": "ORR", "setting": "AML/MDS patients; DE cohort overall, 36 patients, monotherapy", "result": 14, "unit": "%"},
      {"measurement": "ORR", "setting": "AML/MDS patients; DE cohort, 400/200 mg dosing group", "result": 29, "unit": "%"},
      {"measurement": "CR", "setting": "AML/MDS patients; DE overall, N=36", "result": "1 (3%) n (%)"},
      {"measurement": "CRi", "setting": "AML/MDS patients; DE overall, N=36", "result": "2 (6%) n (%)"},
      {"measurement": "MLFS", "setting": "AML/MDS patients; DE overall, N=36", "result": "1 (3%) n (%)"},
      {"measurement": "MR (marrow response)", "setting": "AML/MDS patients; DE overall, N=36", "result": "1 (3%) n (%)"},
      {"measurement": "NE (not evaluable)", "setting": "AML/MDS patients; DE overall, N=36", "result": "8 (22%) n (%)"},
      {"measurement": "Non-Responder", "setting": "AML/MDS patients; DE overall, N=36", "result": "31 (86%) n (%)"},
      {"measurement": "PD (progressive disease)", "setting": "AML/MDS patients; DE overall, N=36", "result": "5 (14%) n (%)"},
      {"measurement": "PR", "setting": "AML/MDS patients; DE overall, N=36", "result": "0 n (%)"},
      {"measurement": "Responder", "setting": "AML/MDS patients; DE overall, N=36", "result": "5 (14%) n (%)"},
      {"measurement": "UC (unchanged)", "setting": "AML/MDS patients; DE overall, N=36", "result": "13 (36%) n (%)"}
    ]}
  ]
}
